Test results reported in US10689377B2 (Mirati Therapeutics, Inc., priority 2017, dated 2020).

Biological target: KRas G12C (Homo sapiens, UniProt P01116, G12C)
Test: Cellular inhibition of KRas G12C measured by Phospho-ERK in NCI-H358 cells
Assay type: cell-based
Settings: pERK(Thr202/Tyr204) normalized with GAPDH, NCI-H358 cells, 3 hours; read-out: IC50
Procedure, shortened: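 NCI-H358 cells treated 3 h with compound (0.5% DMSO final), then fixed and methanol-permeabilised. In-cell immunofluorescence measured pERK(Thr202/Tyr204) normalised to GAPDH as percent of DMSO control. IC50 from a 4-parameter dose-response fit.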

KRas G12C, sequence (P01116 1-188 isoform P01116-2 G12C): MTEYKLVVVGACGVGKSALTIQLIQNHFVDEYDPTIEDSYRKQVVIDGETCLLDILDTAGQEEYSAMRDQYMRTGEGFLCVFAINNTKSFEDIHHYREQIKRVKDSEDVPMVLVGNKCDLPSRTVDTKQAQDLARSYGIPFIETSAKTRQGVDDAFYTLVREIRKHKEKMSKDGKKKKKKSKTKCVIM

IC50 [nM] | Structure (SMILES)
> 1000 | C=CC(=O)N1CCN(c2nc(OCCN(C)CCO)nc3c2CCN(c2cc(O)cc4ccccc24)C3)CC1 [Example 83, 1-(4-(2-(2-((2-hydroxyethyl)(methyl)amino)ethoxy)-7-(3-hydroxynaphthalen-1-yl)-5,6,7,8-tetrahydropyrido[3,4-d]pyrimidin-4-yl)piperazin-1-yl)prop-2-en-1-one]
> 1000 | C=CC(=O)N1CCN(c2nc(O[C@H](C)CN(C)C)nc3c2CCN(c2c(O)ccc(C)c2F)C3)CC1 [Example 84, (R)-1-(4-(2-((1-(dimethylamino)propan-2-yl)oxy)-7-(2-fluoro-6-hydroxy-3-methylphenyl)-5,6,7,8-tetrahydropyrido[3,4-d]pyrimidin-4-yl)piperazin-1-yl)prop-2-en-1-one]
> 1000 | C=CC(=O)N1CCN(c2nc(OCCN3CCCC3)nc3c2CCN(c2cc(O)cc4ccccc24)C3)CC1 [Example 85, 1-(4-(7-(3-hydroxynaphthalen-1-yl)-2-(2-(pyrrolidin-1-yl)ethoxy)-5,6,7,8-tetrahydropyrido[3,4-d]pyrimidin-4-yl)piperazin-1-yl)prop-2-en-1-one]
> 1000 | C=CC(=O)N1CCN(c2nc(O[C@H](C)CN(C)C)nc3c2CCN(c2cc(OC(F)(F)F)ccc2O)C3)CC1 [Example 86, (R)-1-(4-(2-((1-(dimethylamino)propan-2-yl)oxy)-7-(2-hydroxy-5-(trifluoromethoxy)phenyl)-5,6,7,8-tetrahydropyrido[3,4-d]pyrimidin-4-yl)piperazin-1-yl)prop-2-en-1-one]
> 1000 | C=CC(=O)N1CCN(c2nc(O[C@H](C)CN(C)C)nc3c2CCN(c2c(C)ccc(F)c2O)C3)CC1 [Example 87, (R)-1-(4-(2-((1-(dimethylamino)propan-2-yl)oxy)-7-(3-fluoro-2-hydroxy-6-methylphenyl)-5,6,7,8-tetrahydropyrido[3,4-d]pyrimidin-4-yl)piperazin-1-yl)prop-2-en-1-one]
0.1 to 1000 | C=CC(=O)N1CCN(c2nc(OCCN3CCCC[C@@H]3C)nc3c2CCN(c2cc(O)cc4ccccc24)C3)CC1 [Example 88, (S)-1-(4-(7-(3-hydroxynaphthalen-1-yl)-2-(2-(2-methylpiperidin-1-yl)ethoxy)-5,6,7,8-tetrahydropyrido[3,4-d]pyrimidin-4-yl)piperazin-1-yl)prop-2-en-1-one]
0.1 to 1000 | C=CC(=O)N1CCN(c2nc(OCC3CCN(C)C3)nc3c2CCN(c2cc(O)cc4ccccc24)C3)CC1 (stereo not drawn) [Example 89, 1-(4-(7-(3-hydroxynaphthalen-1-yl)-2-((1-methylpyrrolidin-3-yl)methoxy)-5,6,7,8-tetrahydropyrido[3,4-d]pyrimidin-4-yl)piperazin-1-yl)prop-2-en-1-one]
0.1 to 1000 | C=CC(=O)N1CCN(c2nc(OCCCN3CCOCC3)nc3c2CCN(c2cc(O)ccc2OC(F)(F)F)C3)CC1 [Example 90, 1-(4-(7-(5-hydroxy-2-(trifluoromethoxy)phenyl)-2-(3-morpholinopropoxy)-5,6,7,8-tetrahydropyrido[3,4-d]pyrimidin-4-yl)piperazin-1-yl)prop-2-en-1-one]
> 1000 | C=CC(=O)N1CCN(c2nc(O[C@H](C)CN(C)C)nc3c2CCN(c2cc(O)cc(OC(F)(F)F)c2)C3)CC1 [Example 91, (R)-1-(4-(2-((1-(dimethylamino)propan-2-yl)oxy)-7-(3-hydroxy-5-(trifluoromethoxy)phenyl)-5,6,7,8-tetrahydropyrido[3,4-d]pyrimidin-4-yl)piperazin-1-yl)prop-2-en-1-one]
0.1 to 1000 | C=CC(=O)N1CCN(c2nc(OCCN3CCC(C)CC3)nc3c2CCN(c2cc(O)cc4ccccc24)C3)CC1 [Example 92, 1-(4-(7-(3-hydroxynaphthalen-1-yl)-2-(2-(4-methylpiperidin-1-yl)ethoxy)-5,6,7,8-tetrahydropyrido[3,4-d]pyrimidin-4-yl)piperazin-1-yl)prop-2-en-1-one]
> 1000 | C=CC(=O)N1CCN(c2nc(OC(C)CCN3CCOCC3)nc3c2CCN(c2cc(O)cc4ccccc24)C3)CC1 (stereo not drawn) [Example 93, 1-(4-(7-(3-hydroxynaphthalen-1-yl)-2-((4-morpholinobutan-2-yl)oxy)-5,6,7,8-tetrahydropyrido[3,4-d]pyrimidin-4-yl)piperazin-1-yl)prop-2-en-1-one]
> 1000 | C=CC(=O)N1CCN(c2nc(O[C@H](C)CN(C)C)nc3c2CCN(c2cc(O)ccc2OC)C3)CC1 [Example 94, (R)-1-(4-(2-((1-(dimethylamino)propan-2-yl)oxy)-7-(5-hydroxy-2-methoxyphenyl)-5,6,7,8-tetrahydropyrido[3,4-d]pyrimidin-4-yl)piperazin-1-yl)prop-2-en-1-one]
> 1000 | C=CC(=O)N1CCN(c2nc(O[C@H](C)CN(C)C)nc3c2CCN(c2c(C)cccc2O)C3)CC1 [Example 95, (R)-1-(4-(2-((1-(dimethylamino)propan-2-yl)oxy)-7-(2-hydroxy-6-methylphenyl)-5,6,7,8-tetrahydropyrido[3,4-d]pyrimidin-4-yl)piperazin-1-yl)prop-2-en-1-one]
> 1000 | C=CC(=O)N1CCN(c2nc(OCCCN3CCOCC3)nc3c2CCN(c2cc(O)ccc2OC(C)C)C3)CC1 [Example 96, 1-(4-(7-(5-hydroxy-2-isopropoxyphenyl)-2-(3-morpholinopropoxy)-5,6,7,8-tetrahydropyrido[3,4-d]pyrimidin-4-yl)piperazin-1-yl)prop-2-en-1-one]
0.1 to 1000 | C=CC(=O)N1CCN(c2nc(OCCN3CCCC[C@H]3C)nc3c2CCN(c2cc(O)cc4ccccc24)C3)CC1 [Example 97, (R)-1-(4-(7-(3-hydroxynaphthalen-1-yl)-2-(2-(2-methylpiperidin-1-yl)ethoxy)-5,6,7,8-tetrahydropyrido[3,4-d]pyrimidin-4-yl)piperazin-1-yl)prop-2-en-1-one]
> 1000 | C=CC(=O)N1CCN(c2nc(OCCN3CCC[C@H](OC)C3)nc3c2CCN(c2cc(O)cc4ccccc24)C3)CC1 [Example 98, (S)-1-(4-(7-(3-hydroxynaphthalen-1-yl)-2-(2-(3-methoxypiperidin-1-yl)ethoxy)-5,6,7,8-tetrahydropyrido[3,4-d]pyrimidin-4-yl)piperazin-1-yl)prop-2-en-1-one]
> 1000 | C=CC(=O)N1CCN(c2nc(OCCN3CCC[C@@H](OC)C3)nc3c2CCN(c2cc(O)cc4ccccc24)C3)CC1 [Example 99, (R)-1-(4-(7-(3-hydroxynaphthalen-1-yl)-2-(2-(3-methoxypiperidin-1-yl)ethoxy)-5,6,7,8-tetrahydropyrido[3,4-d]pyrimidin-4-yl)piperazin-1-yl)prop-2-en-1-one]
> 1000 | C=CC(=O)N1CCN(c2nc(OC3CCN(C4CC4)CC3)nc3c2CCN(c2cc(O)cc4ccccc24)C3)CC1 [Example 100, 1-(4-(2-((1-cyclopropylpiperidin-4-yl)oxy)-7-(3-hydroxynaphthalen-1-yl)-5,6,7,8-tetrahydropyrido[3,4-d]pyrimidin-4-yl)piperazin-1-yl)prop-2-en-1-one]
0.1 to 1000 | C=CC(=O)N1CCN(c2nc(OCCCN3CCCOCC3)nc3c2CCN(c2cc(O)cc4ccccc24)C3)CC1 [Example 101, 1-(4-(2-(3-(1,4-oxazepan-4-yl)propoxy)-7-(3-hydroxynaphthalen-1-yl)-5,6,7,8-tetrahydropyrido[3,4-d]pyrimidin-4-yl)piperazin-1-yl)prop-2-en-1-one]
0.1 to 1000 | C=CC(=O)N1CCN(c2nc(OCCN(CC)CC)nc3c2CCN(c2cc(O)cc4ccccc24)C3)CC1 [Example 102]
0.1 to 1000 | C=CC(=O)N1CCN(c2nc(OCC3CCN(CCOC)C3)nc3c2CCN(c2cc(O)cc4ccccc24)C3)CC1 (stereo not drawn) [Example 103, 1-(4-(7-(3-hydroxynaphthalen-1-yl)-2-((1-(2-methoxyethyl)pyrrolidin-3-yl)methoxy)-5,6,7,8-tetrahydropyrido[3,4-d]pyrimidin-4-yl)piperazin-1-yl)prop-2-en-1-one]
0.1 to 1000 | C=CC(=O)N1CCN(c2nc(OCCCN3C[C@@H]4C[C@H]3CO4)nc3c2CCN(c2cc(O)cc4ccccc24)C3)CC1 [Example 104, 1-(4-(2-(3-((1S,4S)-2-oxa-5-azabicyclo[2.2.1]heptan-5-yl)propoxy)-7-(3-hydroxynaphthalen-1-yl)-5,6,7,8-tetrahydropyrido[3,4-d]pyrimidin-4-yl)piperazin-1-yl)prop-2-en-1-one]
> 1000 | C=CC(=O)N1CCN(c2nc(OCCCN3CCOCC3)nc3c2CCN(c2cc(O)ccc2C)C3)CC1 [Example 105, 1-(4-(7-(5-hydroxy-2-methylphenyl)-2-(3-morpholinopropoxy)-5,6,7,8-tetrahydropyrido[3,4-d]pyrimidin-4-yl)piperazin-1-yl)prop-2-en-1-one]
> 1000 | C=CC(=O)N1CCN(c2nc(OCCCN3CCOCC3)nc3c2CCN(c2ccc(O)cc2OC(F)(F)F)C3)CC1 [Example 106, 1-(4-(7-(4-hydroxy-2-(trifluoromethoxy)phenyl)-2-(3-morpholinopropoxy)-5,6,7,8-tetrahydropyrido[3,4-d]pyrimidin-4-yl)piperazin-1-yl)prop-2-en-1-one]
> 1000 | C=CC(=O)N1CCN(c2nc(OCCN(C)CCOC)nc3c2CCN(c2cc(O)cc4ccccc24)C3)CC1 [Example 107, 1-(4-(7-(3-hydroxynaphthalen-1-yl)-2-(2-((2-methoxyethyl)(methyl)amino)ethoxy)-5,6,7,8-tetrahydropyrido[3,4-d]pyrimidin-4-yl)piperazin-1-yl)prop-2-en-1-one]
0.1 to 1000 | C=CC(=O)N1CCN(c2nc(OCCN3CCC(OC)CC3)nc3c2CCN(c2cc(O)cc4ccccc24)C3)CC1 [Example 108, 1-(4-(7-(3-hydroxynaphthalen-1-yl)-2-(2-(4-methoxypiperidin-1-yl)ethoxy)-5,6,7,8-tetrahydropyrido[3,4-d]pyrimidin-4-yl)piperazin-1-yl)prop-2-en-1-one]
> 1000 | C=CC(=O)N1CCN(c2nc(OCCN3CCC(F)(F)CC3)nc3c2CCN(c2cc(O)cc4ccccc24)C3)CC1 [Example 109]
